Measurements reported in patent US11214803B2, “Modulators of YAP1 expression” (Ionis Pharmaceuticals, Inc., priority 2019, dated 2022).
Marks after values point to notes of the source that are not given here. Strand notation (5' to 3'): a small letter for the sugar, then the base; units joined by * are phosphorothioate-linked, units joined directly phosphodiester-linked; [ ] holds rarer units or linkages, { } end groups; capitals alone tell only the bases. k = constrained ethyl (cEt); [5mC] = 5-methylcytosine; d = 2'-deoxy (DNA)

Tested on: Yap1 mRNA
Experiment: Antisense inhibition of human Yap1 in A-431 cells by cEt gapmers, single dose (Example 2, RTS4814)
Format: cell-based
Method in brief: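 Each 16-nucleoside gapmer (ten-deoxy gap, three-cEt wings) is tested once at 2,000 nM in A-431 cells by free uptake. Yap1 mRNA after about 48 hours is measured by quantitative RT-PCR and expressed relative to untreated control.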

[1] = Table 21, Yap1 mRNA, percent of untreated control, 3-10-3 cEt gapmers targeting SEQ ID NO.: 1 and 2
[2] = Table 22, Yap1 mRNA as percent of untreated control, 3-10-3 cEt gapmers, single dose
[3] = Table 18, A-431 cells, 5,000 cells per well, free uptake, 2,000 nM modified oligonucleotide, approx. 48 hours, RTS4814, normalized to RIBOGREEN, Yap1 mRNA as percent of untreated control
[4] = Table 20, Yap1 mRNA, percent of untreated control, 3-10-3 cEt gapmers targeting SEQ ID NO.: 1 and 2
[5] = Table 6, A-431 cells, 5,000 cells per well, free uptake, 2,000 nM modified oligonucleotide, approx. 48 hours, RTS4814, normalized to RIBOGREEN, Yap1 mRNA relative to untreated control cells
[6] = Table 5, A-431 cells, 5,000 cells per well, free uptake, 2,000 nM modified oligonucleotide, approx. 48 hours, RTS4814, normalized to RIBOGREEN, Yap1 mRNA relative to untreated control cells
[7] = Yap1 mRNA as percent of untreated control, A-431 cells, 3-10-3 cEt gapmers targeting SEQ ID NO.: 1, and 2, Table 30
[8] = Table 24, Yap1 mRNA as percent of untreated control, 3-10-3 cEt gapmers targeting SEQ ID NO.: 1, and 2
[9] = Table 19, A-431 cells, 5,000 cells per well, free uptake, 2,000 nM modified oligonucleotide, approx. 48 hours, RTS4814, normalized to RIBOGREEN, Yap1 mRNA as percent of untreated control
[10] = Table 23, Yap1 mRNA as percent of untreated control, 3-10-3 cEt gapmers, single dose
[11] = Table 25, Yap1 mRNA as percent of untreated control, 3-10-3 cEt gapmers targeting SEQ ID NO.: 1, and 2

1074791 (k[5mC]*kT*k[5mC]*d[5mC]*dA*dT*d[5mC]*dA*dA*d[5mC]*d[5mC]*dA*dT*kA*kA*kG; antisense) [Compound 1074791]
YAP1 (% UTC) [1]: 20 % UTC

1076328 (kA*k[5mC]*kT*dG*dA*dA*d[5mC]*d[5mC]*dG*d[5mC]*dT*dG*d[5mC]*k[5mC]*kT*k[5mC]; antisense) [Compound 1076328]
YAP1 (% UTC) [2]: 33 % UTC

1074564 (antisense k[5mC]*kT*kG*dA*dA*dT*dT*d[5mC]*d[5mC]*dA*dA*dT*d[5mC]*kG*kA*kG) [Compound 1074564]
YAP1 (% UTC) [3]: 4 % UTC

1074598 (antisense k[5mC]*kT*kT*dA*dT*dA*dG*dT*dA*dT*dT*d[5mC]*dT*kA*kT*k[5mC]) [Compound 1074598]
YAP1 (% UTC) [4]: 46 % UTC

716372 (kA*kT*kG*dA*dG*d[5mC]*dT*d[5mC]*dG*dA*dA*d[5mC]*dA*kT*kG*k[5mC]; antisense) [Compound 716372]
YAP1 (% UTC) [5]: 61 % UTC

716455 (kG*kT*kT*dA*dT*dG*dT*dT*dT*dG*dG*dG*dT*kG*kT*kG; antisense) [Compound 716455]
YAP1 (% UTC) [6]: 17 % UTC

1075120 (kA*kA*kT*dT*dA*dG*d[5mC]*d[5mC]*dT*dA*d[5mC]*d[5mC]*dA*k[5mC]*k[5mC]*kT; antisense) [compound 1075120]
YAP1 (% UTC) [7]: 42 % UTC

716486 (kA*kT*k[5mC]*dA*dT*dG*dA*dT*dT*dA*dT*d[5mC]*dT*k[5mC]*kT*kA; antisense) [Compound 716486]
YAP1 (% UTC) [5]: 68 % UTC

716555 (kT*kA*k[5mC]*dT*dT*dT*dT*dT*d[5mC]*dA*dA*dG*dA*kT*kA*k[5mC]; antisense) [Compound 716555]
YAP1 (% UTC) [5]: 99 % UTC

1074215 (antisense kG*k[5mC]*kT*d[5mC]*d[5mC]*dG*dG*d[5mC]*dG*dG*d[5mC]*dT*dT*kG*kA*kA) [Compound 1074215]
YAP1 (% UTC) [1]: 77 % UTC

1074890 (antisense kG*kA*kA*dG*dT*dT*dT*dA*dG*d[5mC]*d[5mC]*dT*dG*kA*kA*kG) [Compound 1074890]
YAP1 (% UTC) [8]: 58 % UTC

1074375 (antisense kG*k[5mC]*kA*dG*dG*dG*dT*dG*d[5mC]*dT*dT*dT*dG*kG*kT*kT) [Compound 1074375]
YAP1 (% UTC) [1]: 33 % UTC

716542 (antisense k[5mC]*kT*kT*d[5mC]*d[5mC]*d[5mC]*dT*dG*dT*dG*dT*dT*d[5mC]*kA*kT*kT) [Compound 716542]
YAP1 (% UTC) [6]: 45 % UTC

1074469 (k[5mC]*k[5mC]*k[5mC]*dA*d[5mC]*d[5mC]*dG*dA*d[5mC]*d[5mC]*d[5mC]*dT*dG*k[5mC]*k[5mC]*kA; antisense) [Compound 1074469]
YAP1 (% UTC) [9]: 77 % UTC

1074473 (k[5mC]*kA*kA*d[5mC]*d[5mC]*d[5mC]*d[5mC]*d[5mC]*d[5mC]*d[5mC]*dA*d[5mC]*d[5mC]*kG*kA*k[5mC]; antisense) [Compound 1074473]
YAP1 (% UTC) [10]: 82 % UTC

1076146 (kG*k[5mC]*kT*dA*dA*dA*dA*d[5mC]*dT*dT*dT*d[5mC]*dA*kT*k[5mC]*k[5mC]; antisense) [compound 1076146]
YAP1 (% UTC) (Table 32, Yap1 mRNA, percent of untreated control, 3-10-3 cEt gapmers targeting SEQ ID NO.: 1, and 2): 23 % UTC

1075240 (antisense kT*kA*kA*dA*d[5mC]*dG*dG*dT*dT*dT*dA*dT*dA*kT*kT*k[5mC]) [Compound 1075240]
YAP1 (% UTC) [2]: 16 % UTC

1075914 (kA*kT*kT*dT*dA*dG*dG*dA*dT*dG*d[5mC]*d[5mC]*dT*kT*kT*kA; antisense) [Compound 1075914]
YAP1 (% UTC) [8]: 14 % UTC

716362 (kA*kG*kG*d[5mC]*dG*dG*d[5mC]*dT*dG*d[5mC]*d[5mC]*d[5mC]*dT*kT*kG*kG; antisense) [Compound 716362]
YAP1 (% UTC) [6]: 94 % UTC

1076133 (k[5mC]*kA*kT*dA*d[5mC]*dT*dA*dA*dT*dT*dT*dG*dG*kT*kA*kA; antisense) [Compound 1076133]
YAP1 (% UTC) [9]: 60 % UTC

1075177 (antisense kG*kA*kA*dA*dT*dT*dA*d[5mC]*d[5mC]*d[5mC]*dG*dG*dG*kA*kA*k[5mC]) [Compound 1075177]
YAP1 (% UTC) [10]: 27 % UTC

1076208 (kG*kA*kG*dG*dA*dA*dT*dA*dT*dT*dA*d[5mC]*dA*kG*kA*k[5mC]; antisense) [compound 1076208]
YAP1 (% UTC) [7]: 15 % UTC

1075140 (antisense k[5mC]*kT*kT*dT*dA*dG*dG*dT*dT*dA*dA*dG*d[5mC]*kA*kA*kT) [Compound 1075140]
YAP1 (% UTC) [3]: 86 % UTC

1075045 (antisense kA*kA*kA*dT*dT*dA*dG*dA*d[5mC]*dT*d[5mC]*d[5mC]*d[5mC]*k[5mC]*k[5mC]*kA) [Compound 1075045]
YAP1 (% UTC) [9]: 18 % UTC

1075336 (kG*k[5mC]*kT*dT*dA*dA*dT*dA*dA*dT*d[5mC]*dT*dA*k[5mC]*k[5mC]*kA; antisense) [Compound 1075336]
YAP1 (% UTC) [2]: 32 % UTC

1074321 (antisense kG*kG*kG*d[5mC]*dT*dA*dA*d[5mC]*dT*d[5mC]*d[5mC]*dT*dG*kA*k[5mC]*kA) [compound 1074321]
YAP1 (% UTC) (Yap1 mRNA as percent of untreated control, A-431 cells, 3-10-3 cEt gapmers targeting SEQ ID NO.: 1, and 2, Table 31): 73 % UTC

1075915 (kA*kA*kT*dT*dT*dA*dG*dG*dA*dT*dG*d[5mC]*d[5mC]*kT*kT*kT; antisense) [Compound 1075915]
YAP1 (% UTC) [11]: 16 % UTC

1075600 (antisense k[5mC]*kA*k[5mC]*dT*dA*dT*dA*dA*dT*d[5mC]*dT*dG*dA*k[5mC]*k[5mC]*k[5mC]) [compound 1075600]
YAP1 (% UTC) [7]: 68 % UTC

1074596 (antisense kT*kT*k[5mC]*dT*dA*dT*d[5mC]*d[5mC]*dA*dG*dG*dG*dT*k[5mC]*kA*kA) [Compound 1074596]
YAP1 (% UTC) [3]: 12 % UTC

1075496 (antisense kT*kT*kA*dT*dA*dT*dA*dA*dT*dG*d[5mC]*dA*dG*kG*k[5mC]*kT) [Compound 1075496]
YAP1 (% UTC) [2]: 22 % UTC

1076361 (kT*kG*kG*dG*dA*dA*dA*dA*dG*d[5mC]*dT*dA*d[5mC]*k[5mC]*kA*k[5mC]; antisense) [Compound 1076361]
YAP1 (% UTC) [10]: 87 % UTC

1074436 (k[5mC]*kA*kT*dG*dA*dA*dG*d[5mC]*dA*dT*d[5mC]*dT*dG*kA*k[5mC]*kT; antisense) [Compound 1074436]
YAP1 (% UTC) [3]: 31* % UTC

1075242 (antisense k[5mC]*kA*kG*dG*dG*dA*dT*dA*dA*dT*dT*dA*d[5mC]*kT*kA*kA) [Compound 1075242]
YAP1 (% UTC) [8]: 7 % UTC

1074820 (kA*kA*kG*dT*dG*dT*dT*dA*dA*dG*d[5mC]*dA*d[5mC]*kT*kG*kA; antisense) [Compound 1074820]
YAP1 (% UTC) [3]: 85 % UTC

1076075 (kA*k[5mC]*kA*d[5mC]*dA*dA*dG*dG*dG*dT*dT*dG*d[5mC]*kT*kA*kA; antisense) [Compound 1076075]
YAP1 (% UTC) [11]: 38 % UTC

1075187 (kG*k[5mC]*k[5mC]*d[5mC]*dA*dA*dG*dG*dA*dG*dG*dA*dA*kA*kT*k[5mC]; antisense) [compound 1075187]
YAP1 (% UTC) (Table 33, Yap1 mRNA, percent of untreated control, 3-10-3 cEt gapmers targeting SEQ ID NO.: 1, and 2): 77 % UTC

716512 (antisense kA*k[5mC]*kT*d[5mC]*d[5mC]*dT*dT*d[5mC]*d[5mC]*dA*dA*dG*dT*kA*kG*k[5mC]) [Compound 716512]
YAP1 (% UTC) [6]: 99 % UTC

1074759 (k[5mC]*kA*kA*d[5mC]*d[5mC]*dA*dA*dG*dA*dA*dG*d[5mC]*dA*kG*kT*kT; antisense) [Compound 1074759]
YAP1 (% UTC) [1]: 43 % UTC

1074503 (k[5mC]*kA*kA*d[5mC]*dT*dA*d[5mC]*dA*dA*dT*dA*dA*d[5mC]*k[5mC]*kA*kT; antisense) [Compound 1074503]
YAP1 (% UTC) [1]: 29 % UTC

1076228 (kA*kT*kT*dA*dA*d[5mC]*d[5mC]*dT*d[5mC]*dA*dG*dT*dG*kA*kG*k[5mC]; antisense) [Compound 1076228]
YAP1 (% UTC) [3]: 69 % UTC

1075147 (antisense kT*kA*kT*dA*dA*dA*d[5mC]*d[5mC]*dT*dT*dA*d[5mC]*dA*kG*kT*kA) [Compound 1075147]
YAP1 (% UTC) [11]: 57 % UTC

1074790 (k[5mC]*kA*kT*d[5mC]*dA*dA*d[5mC]*d[5mC]*dA*dT*dA*dA*dG*kT*kA*kG; antisense) [Compound 1074790]
YAP1 (% UTC) [4]: 28 % UTC

1075497 (kA*kT*kT*dA*dT*dA*dT*dA*dA*dT*dG*d[5mC]*dA*kG*kG*k[5mC]; antisense) [Compound 1075497]
YAP1 (% UTC) [10]: 14 % UTC

1076459 (antisense k[5mC]*kT*kT*d[5mC]*dA*dA*d[5mC]*dA*dA*dG*dA*d[5mC]*dA*kG*kG*kT) [Compound 1076459]
YAP1 (% UTC) [11]: 4 % UTC

1075940 (kA*k[5mC]*kT*d[5mC]*dA*dA*d[5mC]*dA*dA*d[5mC]*d[5mC]*d[5mC]*d[5mC]*kA*kA*kG; antisense) [Compound 1075940]
YAP1 (% UTC) [3]: 54 % UTC
